Laboratory results published in patent US20170304388A1, “NEW INDICATION OF CARDIOVASCULAR DRUGS FOR PREPARATION OF CANCER INHIBITION PHARMACEUTICAL COMPOSITION” (LAUNX BIOMEDICAL CO., LTD., priority 2014, published 2017).
Structures can show the parent of a compound that is named as a salt.

Legend:
Assay type in all cases: cell-based
cancer cell lines = assay: Growth inhibitory effects on the panel of cancer cell lines; details: drug 10 μM, 72 hours; for Numbers of inhibitory effect on cancer cell line: count of cancer cell lines inhibited; for inhibition effect on different cancer cell lines (in words): WST-1
[1] = tested on: LoVo (Colorectal Adenocarcinoma); assay: Cell viability analysis (WST-1), LoVo; details: WST-1, OD450 nm; for viability at 10 µM: Homo sapiens, LoVo, 72 h, Table 3, drug 10 μM, read-out: survival rate (viability) of cancer cells, LoVo
[2] = tested on: HCT116 (Colorectal Carcinoma); assay: Cell viability analysis (WST-1), HCT116; details: WST-1, OD450 nm; for viability at 10 µM: Homo sapiens, HCT-116, 72 h, Table 3, drug 10 μM, read-out: survival rate (viability) of cancer cells, HCT116 (WT)
[3] = tested on: MCF7 (Mammary Gland, Adenocarcinoma); assay: Cell viability analysis (WST-1), MCF7; details: WST-1, OD450 nm; for viability at 10 µM: Homo sapiens, MCF7, 72 h, Table 3, drug 10 μM, read-out: survival rate (viability) of cancer cells, MCF7
[4] = tested on: H1650 (Lung Adenocarcinoma); assay: Cell viability analysis (WST-1), H1650; details: WST-1, OD450 nm; for viability at 10 µM: Homo sapiens, NCI-H1650, 72 h, Table 3, drug 10 μM, read-out: survival rate (viability) of cancer cells, H1650
[5] = tested on: A549 (Lung Adenocarcinoma); assay: Cell viability analysis (WST-1), A549; details: WST-1, OD450 nm; for viability at 10 µM: Homo sapiens, A549, 72 h, Table 3, drug 10 μM, read-out: survival rate (viability) of cancer cells, A549
[6] = tested on: HeLa (Cervix Adenocarcinoma); assay: Cell viability analysis (WST-1), HeLa; details: WST-1, OD450 nm; for viability at 10 µM: Homo sapiens, HeLa, 72 h, Table 3, drug 10 μM, read-out: survival rate (viability) of cancer cells, HeLa
[7] = tested on: TSGH-8301 (Urinary Bladder Carcinoma); assay: Cell viability analysis (WST-1), TSGH-8301; details: WST-1, OD450 nm; for viability at 10 µM: 72 h, Table 3, drug 10 μM, read-out: survival rate (viability) of cancer cells, TSGH
[8] = tested on: PC3 (Prostate Adenocarcinoma); assay: Cell viability analysis (WST-1), PC3; details: WST-1, OD450 nm; for viability at 10 µM: 72 h, Table 3, drug 10 μM, read-out: survival rate (viability) of cancer cells, PC3
[9] = tested on: MKN-45 (Gastric Adenocarcinoma); assay: Cell viability analysis (WST-1), MKN-45; details: WST-1, OD450 nm; for viability at 10 µM: Homo sapiens, MKN-45, 72 h, Table 3, drug 10 μM, read-out: survival rate (viability) of cancer cells, MKN-45
[10] = tested on: AGS (Gastric Adenocarcinoma); assay: Cell viability analysis (WST-1), AGS; details: WST-1, OD450 nm; for viability at 10 µM: 72 h, Table 3, drug 10 μM, read-out: survival rate (viability) of cancer cells, AGS
[11] = tested on: A375 (Amelanotic Melanoma); assay: Cell viability analysis (WST-1), A375; details: WST-1, OD450 nm, lower viability = better inhibition; for viability at 10 µM: Homo sapiens, A-375, 72 h, Table 3, drug 10 μM, read-out: survival rate (viability) of cancer cells, A375
[12] = tested on: HepG2 (Hepatocellular Carcinoma); assay: Cell viability analysis (WST-1), HepG2; details: WST-1, OD450 nm; for viability at 10 µM: Homo sapiens, HepG2, 72 h, Table 3, drug 10 μM, read-out: survival rate (viability) of cancer cells, HepG2
[13] = tested on: HL-60 (Acute Promyelocytic Leukemia); assay: Cell viability analysis (WST-1), HL-60; details: Table 3, drug 10 μM, 72 hours, WST-1, OD450 nm; for viability at 10 µM: Homo sapiens, HL-60, read-out: survival rate (viability) of cancer cells, HL-60

Row | Compound | Numbers of inhibitory effect on cancer cell line (cancer cell lines) | inhibition effect on different cancer cell lines (in words) (cancer cell lines) | viability at 10 µM [1] | viability at 10 µM [2] | viability at 10 µM [3] | viability at 10 µM [4] | viability at 10 µM [5] | viability at 10 µM [6] | viability at 10 µM [7] | viability at 10 µM [8] | viability at 10 µM [9] | viability at 10 µM [10] | viability at 10 µM [11] | viability at 10 µM [12] | viability at 10 µM [13] | also measured
1 | Cc1c(OCC(F)(F)F)ccnc1C[S@@+]([O-])c1nc2ccccc2[nH]1 [Dexlansoprazole] | 0 | significant inhibition effect | 102% | 82.8% | 72.1% | 69.6% | 74.5% | 105% | 84.9% | 104% | 85.8% | 89.8% | 75.1% | 120% | 72.2% | 
2 | CNC[C@@H](O)c1ccc(O)c(O)c1 [L-Adrenaline (Epinephrine), L-Adrenaline] | 0 | significant inhibition effect |  |  |  |  |  |  |  |  |  |  |  |  |  | survival rate (viability) of cancer cells, LoVo ([1]; Table 3, drug 10 μM, 72 hours): 93.6; survival rate (viability) of cancer cells, HCT116 (WT) ([2]; Table 3, drug 10 μM, 72 hours): 85.0; survival rate (viability) of cancer cells, MCF7 ([3]; Table 3, drug 10 μM, 72 hours): 123.0; survival rate (viability) of cancer cells, H1650 ([4]; Table 3, drug 10 μM, 72 hours): 76.6; survival rate (viability) of cancer cells, A549 ([5]; Table 3, drug 10 μM, 72 hours): 90.8; survival rate (viability) of cancer cells, HeLa ([6]; Table 3, drug 10 μM, 72 hours): 88.7; survival rate (viability) of cancer cells, TSGH ([7]; Table 3, drug 10 μM, 72 hours): 64.7; survival rate (viability) of cancer cells, PC3 ([8]; Table 3, drug 10 μM, 72 hours): 106.0; survival rate (viability) of cancer cells, MKN-45 ([9]; Table 3, drug 10 μM, 72 hours): 69.4; survival rate (viability) of cancer cells, AGS ([10]; Table 3, drug 10 μM, 72 hours): 61.1; survival rate (viability) of cancer cells, A375 ([11]; Table 3, drug 10 μM, 72 hours): 101.9; survival rate (viability) of cancer cells, HepG2 ([12]; Table 3, drug 10 μM, 72 hours): 81.6; survival rate (viability) of cancer cells, HL-60 [13]: 101.8
3 | CC(C)NC[C@H](O)COc1ccc(CCOCC2CC2)cc1 [Levobetaxolol HCl] | 0 | significant inhibition effect | 80% | 70.3% | 85% | 69.9% | 75.9% | 88.7% | 98.2% | 77.3% | 119% | 62.5% | 76.9% | 99.2% | 107% | 
4 | O=C(O)c1nn(Cc2ccc(Cl)cc2Cl)c2ccccc12 [Lonidamine] | 0 | significant inhibition effect | 96.1% | 81.2% | 86.9% | 65.9% | 109% | 61.6% | 86.4% | 102% | 93.3% | 69.9% | 65.8% | 114% | 115% | 
5 | CO[C@@H]1[C@@H](OC(N)=O)[C@@H](O)[C@H](Oc2ccc3c(O)c(NC(=O)c4ccc(O)c(CC=C(C)C)c4)c(=O)oc3c2C)OC1(C)C [Novobiocin sodium (Albamycin), Novobiocin sodium] | 0 | significant inhibition effect | 87.1% | 116% | 109% | 93.5% | 95.2% | 96.1% | 85.3% | 89% | 84.4% | 128% | 93.4% | 92% | 123% | 
6 | CC(=O)O[C@H]1C[C@@H]2CC[C@@H]3[C@H](CC[C@@]4(C)[C@H]3C[C@H]([N+]3(C)CCCCC3)[C@@H]4OC(C)=O)[C@@]2(C)C[C@@H]1[N+]1(C)CCCCC1 [Pancuronium (Pavulon), Pancuronium] | 0 | significant inhibition effect | 79.8% | 102% | 110% | 91.7% | 100% | 83.3% | 68.3% | 108% | 95.3% | 120% | 75.4% | 92.7% | 109% | 
7 | CCCNCC(O)COc1ccccc1C(=O)CCc1ccccc1 (centres unmarked) [Propafenone (Rytmonorm), Propafenone] | 0 |  | 105% | 109% | 120% | 92.5% | 94.1% | 109% | 61.1% | 104% | 84.7% | 79.8% | 95.8% | 86% | 113% | 
8 | CCOC(=O)[C@H](CCc1ccccc1)N[C@@H](C)C(=O)N1[C@H](C(=O)O)C[C@@H]2CCC[C@@H]21 [Ramipril (Altace), Ramipril] | 0 | significant inhibition effect | 81.9% | 108% | 82.4% | 135% | 99.6% | 84.3% | 114% | 104% | 84% | 99.8% | 120% | 106% | 107% | 
9 | C#CCN[C@@H]1CCc2ccccc21 [Rasagiline mesylate] | 0 | significant inhibition effect | 94% | 142% | 88.3% | 71.8% | 91.3% | 88.1% | 74.2% | 103% | 87.7% | 75.8% | 76.9% | 92% | 105% | 
